This is an account of results in patent US20240166642A1, “INHIBITORS OF MYELOPEROXIDASE” (ASTRAZENECA AB, priority 2022, published 2024).

As usually defined, the IC50 is the concentration needed to halve the response being measured. High values mean a need for much substance, low ones inhibition by little substance.

Test [1] has as its target MPO (purified from HL60 cells) (Homo sapiens (Human), UniProt P05164). As to the kind of experiment: MPO activity (IC50), luminol chemiluminescence assay. It counts as biochemical. As to conditions: PBS pH7.4, luminol 100 μM, H2O2 50 μM, chemiluminescence recorded after 15 minutes. The protocol:
(§1) The experiments were performed in phosphate-buffered saline (PBS), pH7.4. A 10 mM luminol (A4695, Sigma Aldrich, St Louis, MO, USA) stock was prepared in distilled water and further diluted in PBS to a final concentration of 100 μM. H2O2 was prepared as 1 mM stock in PBS, yielding a final concentration of 50 μM after addition into the assay. The compounds were serially diluted in DMSO in a separate plate as a 100× stock solution, and MPO (purified from HL60 cells) and TPO (produced in insect cells, RSR Ltd, Cardiff, UK), were diluted to yield a final concentration of approximately 14 and 150 ng/mL, generating 5600 and 9300 light counts per seconds (LCPS) upon incubation with luminol.
(§2) The experiment was run by pipetting 2 μL 100× stock solution of the compound and 200 μL diluted enzyme in PBS into wells in a 96-well Optiplate (6005290, Perkin Elmer/Thermo Fischer, Waltham, MS, USA), followed by addition of 10 μL H2O2 containing PBS. Chemiluminescence measurement (Perkin Elmer Wallac Microbeta Trilux 1450-029 (12-detector), Turkuu, Finland) was started directly and recorded after 2, 10 and 15 minutes.

Test [2] concerns the target TPO (produced in insect cells, RSR Ltd) (Homo sapiens (Human), UniProt P07202). As to the kind of experiment: TPO activity (IC50), luminol chemiluminescence assay. The settings on record: PBS pH7.4, luminol 100 μM, H2O2 50 μM, chemiluminescence recorded after 15 minutes. It counts as biochemical. How it is done: as §1, §2

TPO (produced in insect cells, RSR Ltd), sequence (P07202 19-933): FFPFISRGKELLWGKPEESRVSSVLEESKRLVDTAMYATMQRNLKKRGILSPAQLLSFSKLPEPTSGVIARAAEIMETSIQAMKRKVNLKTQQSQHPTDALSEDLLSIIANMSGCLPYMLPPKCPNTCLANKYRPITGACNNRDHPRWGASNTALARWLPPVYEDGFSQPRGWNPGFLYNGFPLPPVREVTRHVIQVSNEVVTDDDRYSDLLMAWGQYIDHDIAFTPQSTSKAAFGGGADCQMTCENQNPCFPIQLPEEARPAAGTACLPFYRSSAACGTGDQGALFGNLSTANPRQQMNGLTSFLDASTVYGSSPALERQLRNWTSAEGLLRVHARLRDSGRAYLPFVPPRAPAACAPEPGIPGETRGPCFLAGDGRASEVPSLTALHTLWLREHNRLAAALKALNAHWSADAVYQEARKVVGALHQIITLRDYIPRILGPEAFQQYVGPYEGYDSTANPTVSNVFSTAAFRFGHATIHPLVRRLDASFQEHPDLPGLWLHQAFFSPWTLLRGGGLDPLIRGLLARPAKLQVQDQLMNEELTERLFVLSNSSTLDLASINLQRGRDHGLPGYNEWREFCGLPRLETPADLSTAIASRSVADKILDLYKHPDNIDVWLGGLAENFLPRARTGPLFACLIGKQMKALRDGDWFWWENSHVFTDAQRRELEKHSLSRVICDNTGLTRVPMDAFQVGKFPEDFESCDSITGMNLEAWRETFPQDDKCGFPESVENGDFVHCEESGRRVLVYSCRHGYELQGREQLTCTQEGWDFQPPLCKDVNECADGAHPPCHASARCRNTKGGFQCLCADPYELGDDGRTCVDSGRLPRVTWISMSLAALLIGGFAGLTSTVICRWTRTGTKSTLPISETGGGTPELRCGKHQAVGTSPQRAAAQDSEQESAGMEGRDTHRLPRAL
MPO (purified from HL60 cells), sequence (P05164 49-745): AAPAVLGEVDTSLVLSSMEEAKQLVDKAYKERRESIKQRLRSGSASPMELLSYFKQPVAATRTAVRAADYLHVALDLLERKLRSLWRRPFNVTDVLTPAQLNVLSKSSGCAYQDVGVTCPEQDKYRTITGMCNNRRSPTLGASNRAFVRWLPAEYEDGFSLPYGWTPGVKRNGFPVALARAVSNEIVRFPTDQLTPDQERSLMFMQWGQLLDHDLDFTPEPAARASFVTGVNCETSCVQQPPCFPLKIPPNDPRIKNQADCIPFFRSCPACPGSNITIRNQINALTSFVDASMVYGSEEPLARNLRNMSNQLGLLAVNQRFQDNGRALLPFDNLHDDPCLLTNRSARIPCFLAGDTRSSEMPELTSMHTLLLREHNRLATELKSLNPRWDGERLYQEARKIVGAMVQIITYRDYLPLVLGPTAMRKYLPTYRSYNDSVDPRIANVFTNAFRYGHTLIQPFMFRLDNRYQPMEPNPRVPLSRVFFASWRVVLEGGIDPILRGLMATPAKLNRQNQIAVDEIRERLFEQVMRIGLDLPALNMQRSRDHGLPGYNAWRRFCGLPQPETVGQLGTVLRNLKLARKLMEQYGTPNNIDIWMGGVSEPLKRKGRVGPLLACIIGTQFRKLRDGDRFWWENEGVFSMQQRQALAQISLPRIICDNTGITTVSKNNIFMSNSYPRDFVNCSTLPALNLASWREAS

`O=c1[nH]c(=S)n(Cc2ncccc2[C@H]2C[C@@H](C(F)(F)F)CCN2)c2cc[nH]c12` (racemic) [Example 21, rac-2-Thioxo-1-((3-((2R,4S)-4-(trifluoromethyl)piperidin-2-yl)pyridin-2-yl)methyl)-1,2,3,5-tetrahydro-4H-pyrrolo[3,2-d]pyrimidin-4-one]: the IC50 turned out to be 5.7 nM in test [1] and 540 nM in test [2].

As to `O=c1[nH]c(=S)n(Cc2ccncc2[C@H]2C[C@@H](C(F)(F)F)CCN2)c2cc[nH]c12` (racemic) [Example 22, rac-2-Thioxo-1-((3-((2R,4S)-4-(trifluoromethyl)piperidin-2-yl)pyridin-4-yl)methyl)-1,2,3,5-tetrahydro-4H-pyrrolo[3,2-d]pyrimidin-4-one], the figures for the IC50 in test [1] and in test [2] were 11.5 nM and 950 nM, respectively.

With `O=c1[nH]c(=S)n(Cc2ccccc2[C@H]2CCCCN2)c2cc[nH]c12` (single isomer, unassigned) [Example 1a], the IC50 in test [1] was 12.1 nM; in test [2], 1010 nM.

Turning to `O=c1[nH]c(=S)n(Cc2ccccc2[C@H]2CCCCN2)c2cc[nH]c12` (single isomer, unassigned) [Example 1b], the IC50 in test [1] amounted to 2.1 nM; in test [2], 850 nM.

For the compound `O=c1[nH]c(=S)n(Cc2ccc(Cl)cc2[C@H]2CCCCN2)c2cc[nH]c12` (single isomer, unassigned) [Example 2a], the figures for the IC50 in test [1] and in test [2] were 12.2 nM and 1040 nM, respectively.

For the compound `O=c1[nH]c(=S)n(Cc2ccc(Cl)cc2[C@H]2CCCCN2)c2cc[nH]c12` (single isomer, unassigned) [Example 2b], the IC50 in test [1] was determined as 3.6 nM; in test [2] it was 550 nM.

Consider `O=c1[nH]c(=S)n(Cc2ccc(Cl)cc2[C@H]2CCCN2)c2cc[nH]c12` (single isomer, unassigned) [Example 3a], for which the values for the IC50 in test [1] and in test [2] were 3 nM and 550 nM, respectively.

In the case of `O=c1[nH]c(=S)n(Cc2ccc(Cl)cc2[C@H]2CCCN2)c2cc[nH]c12` (single isomer, unassigned) [Example 3b], the values for the IC50 in test [1] and in test [2] were 27.5 nM and 700 nM, respectively.

For `O=c1[nH]c(=S)n(Cc2ccc(Cl)cc2[C@H]2COCCN2)c2cc[nH]c12` (single isomer, unassigned) [Example 4a], the IC50 in test [1] was 18.7 nM; in test [2], 370 nM.

Consider `O=c1[nH]c(=S)n(Cc2ccc(Cl)cc2[C@H]2COCCN2)c2cc[nH]c12` (single isomer, unassigned) [Example 4b], for which the IC50 in test [1] was found to be 127 nM; in test [2], 810 nM.

Take `O=c1[nH]c(=S)n(Cc2ccccc2[C@@H]2CCCCCN2)c2cc[nH]c12` (single isomer, unassigned) [Example 6a]: the figures for the concentration for half-maximal inhibition (IC50) in test [1] and in test [2] were 19.6 nM and 420 nM, respectively.

For the compound `O=c1[nH]c(=S)n(Cc2ccccc2[C@@H]2CCCCCN2)c2cc[nH]c12` (single isomer, unassigned) [Example 6b], the IC50 was found to be 2.8 nM in test [1] and 300 nM in test [2].

As for `O=c1[nH]c(=S)n(Cc2ccccc2[C@H]2C[C@@H](C(F)(F)F)CCN2)c2cc[nH]c12` (single isomer, unassigned) [Example 10a], the figures for the IC50 in test [1] and in test [2] were 6 nM and 1200 nM, respectively.

`O=c1[nH]c(=S)n(Cc2ccccc2[C@H]2C[C@@H](C(F)(F)F)CCN2)c2cc[nH]c12` (single isomer, unassigned) [Example 10b]: the IC50 in test [1] amounted to 1.5 nM; in test [2] it was 430 nM.

Turning to `O=c1[nH]c(=S)n(Cc2ccccc2[C@H]2CC(F)(F)CCN2)c2cc[nH]c12` (single isomer, unassigned) [Example 12a], the IC50 was 27 nM in test [1] and 670 nM in test [2].

Regarding `O=c1[nH]c(=S)n(Cc2ccccc2[C@H]2CC(F)(F)CCN2)c2cc[nH]c12` (single isomer, unassigned) [Example 12b], the figures for the IC50 in test [1] and in test [2] were 2.7 nM and 320 nM, respectively.

Take `O=c1[nH]c(=S)n(Cc2cccnc2[C@H]2C[C@@H](C(F)(F)F)CCN2)c2cc[nH]c12` (single isomer, unassigned) [Example 16a]: the IC50 in test [1] is 31.4 nM; in test [2], 1610 nM.

Regarding `O=c1[nH]c(=S)n(Cc2cccnc2[C@H]2C[C@@H](C(F)(F)F)CCN2)c2cc[nH]c12` (single isomer, unassigned) [Example 16b], the 50% inhibitory concentration (IC50) is 3.9 nM in test [1] and 780 nM in test [2].

`O=c1[nH]c(=S)n(Cc2ccccc2[C@H]2C[C@H](C(F)(F)F)CCN2)c2nc[nH]c12` (single isomer, unassigned) [Example 18a]: the IC50 in test [1] was 56.3 nM; in test [2], 730 nM.

For `O=c1[nH]c(=S)n(Cc2ccccc2[C@H]2C[C@H](C(F)(F)F)CCN2)c2nc[nH]c12` (single isomer, unassigned) [Example 18b], the IC50 in test [1] is 2.7 nM; in test [2] it was 410 nM.

Turning to `O=c1[nH]c(=S)n(Cc2ccccc2[C@H]2C[C@@H](C(F)F)CCN2)c2cc[nH]c12` (single isomer, unassigned) [Example 19a], the results for the IC50 in test [1] and in test [2] were 11.9 nM and 1760 nM, respectively.

As to `O=c1[nH]c(=S)n(Cc2ccccc2[C@H]2C[C@@H](C(F)F)CCN2)c2cc[nH]c12` (single isomer, unassigned) [Example 19b], the values for the half-inhibitory concentration (IC50) in test [1] and in test [2] were 1.3 nM and 570 nM, respectively.

In the case of `O=c1[nH]c(=S)n(Cc2ccccc2[C@H]2CNCCO2)c2cc[nH]c12` (single isomer, unassigned) [Example 29], the IC50 in test [1] came out at 15 nM; in test [2], 540 nM.

Turning to `O=c1[nH]c(=S)n(Cc2cccnc2[C@H]2C[C@H](C(F)(F)F)CCN2)c2cc[nH]c12` (single isomer, unassigned) [Example 31a], the IC50 in test [1] is 30 nM; in test [2], 1700 nM.

Turning to `O=c1[nH]c(=S)n(Cc2cccnc2[C@H]2C[C@H](C(F)(F)F)CCN2)c2cc[nH]c12` (single isomer, unassigned) [Example 31b], the IC50 turned out to be 48 nM in test [1] and 2900 nM in test [2].

As to `O=c1[nH]c(=S)n(Cc2ccccc2[C@H]2C[C@H](C(F)(F)F)CCN2)c2cc[nH]c12` (stereo in doubt) [Example 17a, rel-2-Thioxo-1-(2-((2R,4R)-4-(trifluoromethyl)piperidin-2-yl)benzyl)-1,2,3,5-tetrahydro-4H-pyrrolo[3,2-d]pyrimidin-4-one], the IC50 in test [1] amounted to 16.5 nM; in test [2] it was 760 nM.

In the case of `O=c1[nH]c(=S)n(Cc2ccccc2[C@@H]2C[C@@H](C(F)(F)F)CCN2)c2cc[nH]c12` (stereo in doubt) [Example 17b, rac-2-thioxo-1-(2-((2R,4R)-4-(trifluoromethyl)piperidin-2-yl)benzyl)-1,2,3,5-tetrahydro-4H-pyrrolo[3,2-d]pyrimidin-4-one], the IC50 in test [1] was 3.4 nM; in test [2], 630 nM.

As for `O=c1[nH]c(=S)n(Cc2ccc(Cl)cc2C2COCCN2)c2nc[nH]c12` (stereo not shown) [Example 5, 3-(4-Chloro-2-(morpholin-3-yl)benzyl)-2-thioxo-1,2,3,7-tetrahydro-6H-purin-6-one], the IC50 is 194 nM in test [1] and 1680 nM in test [2].

As to `O=c1[nH]c(=S)n(Cc2ccc(Cl)cc2[C@H]2CCCCCN2)c2nc[nH]c12` [Example 7, (R)-3-(2-(Azepan-2-yl)-4-chlorobenzyl)-2-thioxo-1,2,3,7-tetrahydro-6H-purin-6-one], the IC50 in test [1] was 7.1 nM; in test [2] it was 610 nM.

As for `O=c1[nH]c(=S)n(Cc2ccccc2[C@@H]2COCCN2)c2cc[nH]c12` [Example 8, (R)-1-(2-(Morpholin-3-yl)benzyl)-2-thioxo-1,2,3,5-tetrahydro-4H-pyrrolo[3,2-d]pyrimidin-4-one], the IC50 in test [1] was found to be 67 nM; in test [2], 930 nM.

Turning to `CN1CCNC(c2ccccc2Cn2c(=S)[nH]c(=O)c3[nH]ccc32)C1` (stereo not shown) [Example 9, 1-(2-(4-Methylpiperazin-2-yl)benzyl)-2-thioxo-1,2,3,5-tetrahydro-4H-pyrrolo[3,2-d]pyrimidin-4-one], the IC50 in test [1] was determined as 10.1 nM; in test [2] it was 1270 nM.

For `O=c1[nH]c(=S)n(Cc2ccccc2C2CCC(C(F)(F)F)CN2)c2cc[nH]c12` (stereo not shown) [Example 11, 2-Thioxo-1-(2-(5-(trifluoromethyl)piperidin-2-yl)benzyl)-1,2,3,5-tetrahydro-4H-pyrrolo[3,2-d]pyrimidin-4-one], the half-maximal inhibitory concentration (IC50) worked out at 13 nM in test [1] and 540 nM in test [2].

As to `O=c1[nH]c(=S)n(Cc2ccccc2[C@H]2C[C@@H](C(F)(F)F)CCN2)c2nc[nH]c12` [Example 13a, 2-Thioxo-3-(2-((2R,4S)-4-(trifluoromethyl)piperidin-2-yl)benzyl)-1,2,3,7-tetrahydro-6H-purin-6-one], the IC50 was 16 nM in test [1] and 1050 nM in test [2].

Turning to `O=c1[nH]c(=S)n(Cc2ccccc2[C@@H]2C[C@H](C(F)(F)F)CCN2)c2nc[nH]c12` [Example 13b, 2-Thioxo-3-(2-((2S,4R)-4-(trifluoromethyl)piperidin-2-yl)benzyl)-1,2,3,7-tetrahydro-6H-purin-6-one], the IC50 in test [1] was found to be 2.3 nM; in test [2], 430 nM.

For the compound `O=c1[nH]c(=S)n(Cc2ccccc2C2CC(F)(F)CCN2)c2nc[nH]c12` (stereo not shown) [Example 14, 3-(2-(4,4-Difluoropiperidin-2-yl)benzyl)-2-thioxo-1,2,3,7-tetrahydro-6H-purin-6-one], the half-maximal inhibitory concentration (IC50) was determined as 7.2 nM in test [1] and 540 nM in test [2].
